Experimental data reported in patent publication US12472166B2, “Inhibition of mycobacterial type VII secretion” (priority 2019, dated 2025).
Read-outs that look alike come from different tables or passages of the source.

What was measured:
M. tuberculosis = assay: microbe, parasite or virus in culture; format: cell-based; details: for IC50: read-out: IC50 (μM) M.tb/REMA; for IC90: read-out: IC90 (μM) M.tb/REMA
[1] = human, microsomes, pH 7.4; for Compound remaining (%): 0.5 h
in vitro = details: human, microsomes, pH 7.4
[2] = test system: EsxA (ESX-1 dependent secretion); format: cell-based
[3] = test system: fast-growing mycobacteria; assay: Cell viability assay (REMA), susceptibility of bacterial cultures; format: cell-based; details: up to 80 μM
M. kansasii = assay: as above; format: cell-based; details: tested up to 80 μM
[4] = test system: M. marinum overexpressing ethA; format: cell-based
[5] = test system: ESX-5 dependent secretion; format: cell-based
[6] = test system: PE_PGRS and EsxN (ESX-5 dependent secretion); format: cell-based
M. avium = assay: Cell viability assay (REMA), susceptibility of bacterial cultures; format: cell-based; details: tested up to 80 μM
[7] = test system: M. smegmatis overexpressing ethA; format: cell-based
Escherichia coli = assay: Cell viability assay (REMA), susceptibility of bacterial cultures; format: cell-based; details: highest tested amount (80 μM)
M. marinum = format: cell-based
M. interjectum = assay: Cell viability assay (REMA), susceptibility of bacterial cultures; format: cell-based; details: tested up to 80 μM
Bacillus subtilis = assay: as above; format: cell-based; details: highest tested amount (80 μM)
M. bovis (BCG) = format: cell-based
M. tuberculosis H37Rv WT = assay: THP-1 macrophage infection study, CFU counting; format: cell-based, Mycobacterium tuberculosis
zebrafish embryos = details: in vivo
[8] = Mycobacterium tuberculosis, 168 h, replicating M. tuberculosis, seven days, 37° C.
[9] = Mycobacterium tuberculosis, concentration that reduced bacterial viability to lower than 10%
[10] = Mycobacterium tuberculosis, 168 h
[11] = THP-1 macrophages, MOI 1, day 5

Work on O=C(CSc1nc(-c2ccc(Cl)cc2)ns1)NC1CCCC1 [Compound I-17] yielded an IC50 (M. tuberculosis; [8]) of 0.21 µM and an IC90 (M. tuberculosis; [9]) of 2.5 µM.
With C=CCNC(=O)CSc1nc(-c2ccc(OC)cc2)ns1 [Compound I-6] the IC50 (M. tuberculosis; [10]) was 0.291 µM and the IC90 (M. tuberculosis; Mycobacterium tuberculosis) was 0.63 µM.
In the case of O=C(CSc1nc(-c2ccccc2)ns1)NCCC(F)(F)F [Compound I-35], the “Half-life” value ([1]; 15 μM) is reported as 48.6 min, the “Compound remaining (%)” value [1] is reported as 65% and the CLint scaled at 15 μM (in vitro) is reported as 12.8 mL/min/kg. For the same compound, the IC50 (M. tuberculosis; [8]) was 0.224 µM and the IC90 (M. tuberculosis; [9]) was 0.63 µM.
With COc1ccc(-c2nsc(SCC(=O)OC3CCCC3)n2)cc1 [Compound I-25] the IC50 (M. tuberculosis; [8]) was 0.526 µM and the IC90 (M. tuberculosis; [9]) was 5 µM.
With O=C(CSc1nc(-c2ccc(Cl)cc2)ns1)NCCC(F)(F)F [Compound I-37] the “Compound remaining (%)” value [1] was 55%, the “Half-life” value [1] was 34.8 min and the CLint scaled (in vitro) was 18 mL/min/kg. For the same compound, the IC50 (M. tuberculosis; [8]) was 0.116 µM and the IC90 (M. tuberculosis; [9]) was 0.31 µM.
Compound COc1ccc(-c2nsc(SCC(=O)NC(C)C)n2)cc1 [Compound I-9] has an IC50 (M. tuberculosis; [8]) of 0.152 µM and an IC90 (M. tuberculosis; [9]) of 1.25 µM.
With COc1ccc(-c2nsc(SCC(=O)Nc3cnccn3)n2)cc1 [Compound I-24] the IC50 (M. tuberculosis; [8]) was 4.1 µM and the IC90 (M. tuberculosis; [9]) was 2.5 µM.
For C#CCNC(=O)CSc1nc(-c2ccc(OC)cc2)ns1 [Compound I-7], the IC50 (M. tuberculosis; [8]) was 0.306 µM and the IC90 (M. tuberculosis; [9]) was 0.63 µM.
For COc1ccc(-c2nsc(SCC(=O)NC3CCCC3)n2)cc1 [Compound I-12], the “secretion of EsxA” value [2] was “reduced secretion of EsxA”, the “susceptibility (REMA)” value [3] was “resistant” and the “susceptibility (REMA)” value (M. kansasii) was “susceptible”. For the same compound, the “increased susceptibility as compared to the parent WT strain” value [4] was “at least 4 fold”, the “ESX-5 activity, % of the DMSO treated control” value [5] was 27% and the “concentration at which reduction of ESX-5 substrates EsxN and PE_PGRS proteins was observed” value [6] was 10 µM. For the same compound, the “susceptibility (REMA)” value (M. avium) was “resistant”, the “susceptibility on overexpression of ethA” value [7] was “did not render this strain susceptible” and the “susceptibility (REMA)” value (Escherichia coli) was “resistant”. For the same compound, the “increase of MIC towards M. marinum when mspA was over-produced” value (M. marinum) was 2 fold, the “more compound required to significantly reduce viability when mspA was over-produced” value (M. marinum) was 4 fold and the “reduction in bacterial viability (REMA)” value (M. marinum) was 77%. The “susceptibility (REMA)” value (M. marinum) was “susceptible”, the “susceptibility (REMA)” value (M. interjectum) was “resistant” and the “susceptibility (REMA)” value (Bacillus subtilis) was “resistant”. The IC50 (M. tuberculosis; [10]) was 0.535 µM, the IC90 (M. tuberculosis; Mycobacterium tuberculosis) was 1.25 µM and the “susceptibility (REMA)” value (M. tuberculosis; tested up to 80 μM) was “susceptible”. The “susceptibility (REMA)” value (M. bovis (BCG)) was “susceptible”, the “concentration required to reduce the bacterial load below the initial amount on day 0” value (M. tuberculosis H37Rv WT; [11]) was 10 µM and the “concentration with significant decrease of bacterial load as compared to the DMSO control” value (M. tuberculosis H37Rv WT; [11]) was 3 µM.
Work on CCCCNC(=O)CSc1nc(-c2ccc(OC)cc2)ns1 [Compound I-14] yielded an IC50 (M. tuberculosis; [8]) of 0.496 µM and an IC90 (M. tuberculosis; [9]) of 1.25 µM.
With Cc1cccc(-c2nsc(SCC(=O)N3CCCCC3)n2)c1 [Compound I-18, reference compound] the IC50 (M. tuberculosis; [8]) was 0.251 µM and the IC90 (M. tuberculosis; [9]) was 2.5 µM.
For O=C(CSc1nc(-c2ccccc2)no1)NC1CCCC1 [Compound I-31], the “growth of M. tuberculosis” value (M. tuberculosis; 10 μM) was “inhibited growth”, the IC50 (M. tuberculosis) was 2.71 µM and the IC90 (M. tuberculosis) was 10 µM.
CCCC(C)NC(=O)CSc1nc(-c2ccc(OC)cc2)ns1 (centres unmarked) [Compound I-29] showed an IC50 (M. tuberculosis; [8]) of 1.25 µM and an IC90 (M. tuberculosis; [9]) of 10 µM.
CNC(=O)CSc1nc(-c2ccc(OC)cc2)ns1 [Compound I-27] gave an IC50 (M. tuberculosis; [8]) of 1.85 µM and an IC90 (M. tuberculosis; [9]) of 5 µM.
With CO[C@H]1/C=C/O[C@@]2(C)Oc3c(C)c(O)c4c(O)c(c(/C=N/N5CCN(C)CC5)c(O)c4c3C2=O)NC(=O)/C(C)=C\C=C\[C@H](C)[C@H](O)[C@@H](C)[C@@H](O)[C@@H](C)[C@H](OC(C)=O)[C@@H]1C [Rifampin, reference compound] the “bacterial viability (REMA) readout, control condition” value (M. marinum) was “negative”.
In the case of COc1ccc(-c2nsc(SCC(=O)Nc3ccccn3)n2)cc1 [Compound I-20], the IC50 (M. tuberculosis; [8]) is reported as 0.502 µM and the IC90 (M. tuberculosis; [9]) is reported as 2.5 µM.
COc1ccc(-c2nsc(SCC(=O)NC3CCCCC3)n2)cc1 [Compound I-22] showed an IC50 (M. tuberculosis; [8]) of 0.663 µM and an IC90 (M. tuberculosis; [9]) of 2.5 µM.
For CCCNC(=O)CSc1nc(-c2ccccc2)ns1 [Compound I-1], the “Half-life” value ([1]; 15 μM) was 45.6 min, the “Compound remaining (%)” value [1] was 64% and the CLint scaled at 15 μM (in vitro) was 13.6 mL/min/kg. For the same compound, the IC50 (M. tuberculosis; [8]) was 0.083 µM, the IC90 (M. tuberculosis; [9]) was 0.16 µM and the “increase of activity as compared to compound I-12” value (M. tuberculosis; tested on M. tuberculosis) was “eight-fold”. For the same compound, the “activity compared with Ethambutol (EMB)” value (M. tuberculosis H37Rv WT; 10 μM) was “as active as EMB”, the “activity compared with Streptomycin (STR)” value (M. tuberculosis H37Rv WT; 10 μM) was “higher activity than STR” and the “reduction of bacteria as compared to the DMSO control” value (M. tuberculosis H37Rv WT; 10 μM) was “approximately 100 fold”. The “concentration with significant decrease of bacterial load as compared to the DMSO control” value (M. tuberculosis H37Rv WT; [11]) was 1 µM.
In the case of Cc1cccc(-c2nsc(SCC(=O)NCC3CCCO3)n2)c1 (centres unmarked) [Compound I-39, reference compound], the “toxicity (survival of zebra fish embryos scored by heartbeat)” value (shortened to “toxicity”) (zebrafish embryos) is reported as “least toxic of the comparative compounds”, the IC50 (M. tuberculosis; [10]) is reported as 0.248 µM and the IC90 (M. tuberculosis; Mycobacterium tuberculosis) is reported as 0.63 µM.
Work on COc1ccc(-c2nsc(SCC(=O)N3CCOCC3)n2)cc1 [Compound I-15] yielded an IC50 (M. tuberculosis; [8]) of 0.121 µM and an IC90 (M. tuberculosis; [9]) of 2.5 µM.
For COc1ccc(-c2nsc(SCC(=O)NCC3CCCC3)n2)cc1 [Compound I-38, reference compound], the “toxicity” value (zebrafish embryos) was “somewhat less toxic than I-40 and I-41”, the IC50 (M. tuberculosis; [10]) was 0.447 µM and the IC90 (M. tuberculosis; Mycobacterium tuberculosis) was 1.25 µM.
In the case of CCOC(=O)CNC(=O)CSc1nc(-c2ccccc2)ns1 [Compound I-41, reference compound], the “toxicity” value (zebrafish embryos) is reported as “toxic”, the IC50 (M. tuberculosis; [10]) is reported as 0.269 µM and the IC90 (M. tuberculosis; Mycobacterium tuberculosis) is reported as 0.63 µM.
